Results from ChEMBL document CHEMBL3885861, “Open TG-GATES”.

Organism: Rattus norvegicus
Test: Open TG-GATES - Regimen: Single
Assay type: toxicity, organism-based, Sprague-Dawley
Parameters: regimen Single, gender Male, age 6 weeks
Details: in vivo, po, 50 mg/kg, route gavage, dose level High; for APTT / Bas / Eos / Fbg / Hb / Ht / Lym / MCH / MCHC / MCV / Mono / Neu / PT / Plat / RBC / Ret / WBC: tissue Blood; for LIVER: tissue Liver; for A/G / ALP / ALT / AST / BUN / CRE / Ca / Cl / DBIL / GLC / IP / K / LDH / Na / PL / RALB / TBIL / TC / TG / TP / gamma-GTP: tissue Plasma

For `C=C(C)[C@H]1Cc2c(ccc3c2O[C@@H]2COc4cc(OC)c(OC)cc4[C@@H]2C3=O)O1` [ROTENONE], the TERMINAL_BW (3 h) was 195.9 g, the APTT (3 h) was 15.9 s and the Bas (3 h) was 0%. It also gave an Eos (3 h) of 0.8%, a Fbg (3 h) of 204.8 mg/dL and a Hb (3 h) of 13.2 g/dL. The Ht (3 h) was 40.1%, the Lym (3 h) was 73.4% and the MCH (3 h) was 20.7 pg. It also gave an MCHC (3 h) of 32.8%, an MCV (3 h) of 63.1 fL and a Mono (3 h) of 9.2%. For the same compound, the Neu (3 h) was 17.4%, the PT (3 h) was 12.6 s and the Plat (3 h) was 124.2 x10_4/uL. For the same compound, the RBC (3 h) was 636.2 x10_4/ul, the Ret (3 h) was 8.8% and the WBC (3 h) was 89.8 x10_2/uL. For the same compound, the LIVER (3 h) was 8.5 g, the A/G (3 h) was 2.3 and the ALP (3 h) was 1894.6 IU/L. It also gave an ALT (3 h) of 39 IU/L, an AST (3 h) of 79.4 IU/L and a BUN (3 h) of 13.8 mg/dL. It also gave a CRE (3 h) of 0.4 mg/dL, a Ca (3 h) of 11.1 mg/dL and a Cl (3 h) of 103.6 meq/L. For the same compound, the DBIL (3 h) was 0.008 mg/dL, the GLC (3 h) was 182.2 mg/dL and the IP (3 h) was 8.9 mg/dL. It also gave a K (3 h) of 3.9 meq/L, an LDH (3 h) of 92.6 IU/L and a Na (3 h) of 140.6 meq/L. The PL (3 h) was 123.2 mg/dL, the RALB (3 h) was 3.7 g/dL and the TBIL (3 h) was 0.036 mg/dL. For the same compound, the TC (3 h) was 77.4 mg/dL, the TG (3 h) was 49.4 mg/dL and the TP (3 h) was 5.3 g/dL. It also gave a gamma-GTP (3 h) of 1 IU/L, a TERMINAL_BW (6 h) of 197.3 g and an APTT (6 h) of 16.8 s. The Bas (6 h) was 0%, the Eos (6 h) was 0% and the Fbg (6 h) was 213.4 mg/dL. The Hb (6 h) was 13.3 g/dL, the Ht (6 h) was 40.7% and the Lym (6 h) was 77.8%. For the same compound, the MCH (6 h) was 20.8 pg, the MCHC (6 h) was 32.7% and the MCV (6 h) was 63.7 fL. For the same compound, the Mono (6 h) was 6.6%, the Neu (6 h) was 15% and the PT (6 h) was 12.6 s. For the same compound, the Plat (6 h) was 136.6 x10_4/uL, the RBC (6 h) was 638.2 x10_4/ul and the Ret (6 h) was 9.1%. For the same compound, the WBC (6 h) was 84.6 x10_2/uL, the LIVER (6 h) was 8.2 g and the A/G (6 h) was 2.3. The ALP (6 h) was 1068.4 IU/L, the ALT (6 h) was 41.2 IU/L and the AST (6 h) was 75 IU/L. The BUN (6 h) was 11.4 mg/dL, the CRE (6 h) was 0.4 mg/dL and the Ca (6 h) was 11.3 mg/dL. It also gave a Cl (6 h) of 103.8 meq/L, a DBIL (6 h) of 0.01 mg/dL and a GLC (6 h) of 185.8 mg/dL. The IP (6 h) was 9.9 mg/dL, the K (6 h) was 3.9 meq/L and the LDH (6 h) was 96 IU/L. The Na (6 h) was 140.6 meq/L, the PL (6 h) was 145.2 mg/dL and the RALB (6 h) was 3.7 g/dL. It also gave a TBIL (6 h) of 0.044 mg/dL, a TC (6 h) of 84.8 mg/dL and a TG (6 h) of 45.6 mg/dL. The TP (6 h) was 5.4 g/dL, the gamma-GTP (6 h) was 0.2 IU/L and the TERMINAL_BW (9 h) was 196.2 g. For the same compound, the APTT (9 h) was 16.7 s, the Bas (9 h) was 0% and the Eos (9 h) was 0.6%. It also gave a Fbg (9 h) of 221.4 mg/dL, a Hb (9 h) of 13 g/dL and a Ht (9 h) of 39.5%. The Lym (9 h) was 82.2%, the MCH (9 h) was 21.4 pg and the MCHC (9 h) was 33%. The MCV (9 h) was 64.8 fL, the Mono (9 h) was 4.6% and the Neu (9 h) was 12.6%. For the same compound, the PT (9 h) was 12.6 s, the Plat (9 h) was 137 x10_4/uL and the RBC (9 h) was 610 x10_4/ul. For the same compound, the Ret (9 h) was 8.7%, the WBC (9 h) was 86.6 x10_2/uL and the LIVER (9 h) was 8 g. The A/G (9 h) was 2.3, the ALP (9 h) was 1128.2 IU/L and the ALT (9 h) was 30.6 IU/L. The AST (9 h) was 66.8 IU/L, the BUN (9 h) was 11.8 mg/dL and the CRE (9 h) was 0.4 mg/dL. For the same compound, the Ca (9 h) was 11 mg/dL, the Cl (9 h) was 104.2 meq/L and the DBIL (9 h) was 0.01 mg/dL. For the same compound, the GLC (9 h) was 171.2 mg/dL, the IP (9 h) was 10.2 mg/dL and the K (9 h) was 4.1 meq/L. It also gave an LDH (9 h) of 105 IU/L, a Na (9 h) of 139.6 meq/L and a PL (9 h) of 135.8 mg/dL. The RALB (9 h) was 3.8 g/dL, the TBIL (9 h) was 0.048 mg/dL and the TC (9 h) was 87.6 mg/dL. For the same compound, the TG (9 h) was 34.8 mg/dL, the TP (9 h) was 5.4 g/dL and the gamma-GTP (9 h) was 1 IU/L. The TERMINAL_BW (24 h) was 202.8 g, the APTT (24 h) was 16.4 s and the Bas (24 h) was 0%. It also gave an Eos (24 h) of 0.8%, a Fbg (24 h) of 198.6 mg/dL and a Hb (24 h) of 13.3 g/dL. The Ht (24 h) was 40.7%, the Lym (24 h) was 83.8% and the MCH (24 h) was 20.6 pg. It also gave an MCHC (24 h) of 32.7%, an MCV (24 h) of 63 fL and a Mono (24 h) of 4.6%. The Neu (24 h) was 10.8%, the PT (24 h) was 12.4 s and the Plat (24 h) was 128.6 x10_4/uL. For the same compound, the RBC (24 h) was 648.4 x10_4/ul, the Ret (24 h) was 7.3% and the WBC (24 h) was 67.6 x10_2/uL. It also gave an LIVER (24 h) of 8.4 g, an A/G (24 h) of 2.5 and an ALP (24 h) of 1301.4 IU/L. It also gave an ALT (24 h) of 25.8 IU/L, an AST (24 h) of 61.4 IU/L and a BUN (24 h) of 13.6 mg/dL. For the same compound, the CRE (24 h) was 0.4 mg/dL, the Ca (24 h) was 11.8 mg/dL and the Cl (24 h) was 104 meq/L. For the same compound, the DBIL (24 h) was 0.01 mg/dL, the GLC (24 h) was 185.8 mg/dL and the IP (24 h) was 8.3 mg/dL. The K (24 h) was 4.1 meq/L, the LDH (24 h) was 66.4 IU/L and the Na (24 h) was 140.2 meq/L. The PL (24 h) was 128 mg/dL, the RALB (24 h) was 4 g/dL and the TBIL (24 h) was 0.042 mg/dL. It also gave a TC (24 h) of 74.2 mg/dL, a TG (24 h) of 46.4 mg/dL and a TP (24 h) of 5.5 g/dL. It also gave a gamma-GTP (24 h) of 0.6 IU/L.
